Measured values published in ChEMBL document CHEMBL3792365, “Dioxol and dihydrodioxin analogs of 2- and 3-phenylacetonitriles as potent anti-cancer agents with nanomolar activity against a variety of human cancer cells” (2016).

How the values were obtained:
Format in all cases: functional
[1] = system: NCI-H23; test: Growth inhibition of human NCI-H23 cells at 10 uM after 48 hrs by sulforhodamine B assay; conditions: NCI-H23, 48 h, values are per cent of control
[2] = system: M14; test: Growth inhibition of human M14 cells at 10 uM after 48 hrs by sulforhodamine B assay; conditions: M14, 48 h, values are per cent of control
[3] = Growth inhibition of human IGROV1 cells at 10 uM after 48 hrs by sulforhodamine B assay; conditions: IGROV-1, 48 h, values are per cent of control
[4] = Growth inhibition of human OVCAR4 cells at 10 uM after 48 hrs by sulforhodamine B assay; conditions: OVCAR-4, 48 h, values are per cent of control
[5] = Growth inhibition of human HCT116 cells at 10 uM after 48 hrs by sulforhodamine B assay; conditions: HCT-116, 48 h, values are per cent of control
[6] = system: MDA-MB-231; test: Growth inhibition of human MDA-MB-231 cells at 10 uM after 48 hrs by sulforhodamine B assay; conditions: MDA-MB-231, 48 h, values are per cent of control
[7] = Growth inhibition of human SW620 cells at 10 uM after 48 hrs by sulforhodamine B assay; conditions: SW-620, 48 h, values are per cent of control
[8] = Growth inhibition of human NCI-ADR-RES cells at 10 uM after 48 hrs by sulforhodamine B assay; conditions: values are per cent of control
[9] = Growth inhibition of human OVCAR5 cells at 10 uM after 48 hrs by sulforhodamine B assay; conditions: OVCAR-5, 48 h, values are per cent of control
[10] = system: SK-MEL-5; test: Growth inhibition of human SK-MEL-5 cells at 10 uM after 48 hrs by sulforhodamine B assay; conditions: SK-MEL-5, 48 h, values are per cent of control
[11] = Growth inhibition of human SF268 cells at 10 uM after 48 hrs by sulforhodamine B assay; conditions: SF-268, 48 h, values are per cent of control
[12] = system: A498; test: Growth inhibition of human A498 cells at 10 uM after 48 hrs by sulforhodamine B assay; conditions: A498, 48 h, values are per cent of control
[13] = Growth inhibition of human RXF393 cells at 10 uM after 48 hrs by sulforhodamine B assay; conditions: RXF 393, 48 h, values are per cent of control
[14] = system: SN12C; test: Growth inhibition of human SN12C cells at 10 uM after 48 hrs by sulforhodamine B assay; conditions: values are per cent of control
[15] = Growth inhibition of human UO31 cells at 10 uM after 48 hrs by sulforhodamine B assay; conditions: UO-31, 48 h, values are per cent of control
[16] = system: K562; test: Growth inhibition of human K562 cells at 10 uM after 48 hrs by sulforhodamine B assay; conditions: K562, 48 h, values are per cent of control
[17] = Growth inhibition of human SNB75 cells at 10 uM after 48 hrs by sulforhodamine B assay; conditions: SNB-75, 48 h, values are per cent of control
[18] = system: ACHN; test: Growth inhibition of human ACHN cells at 10 uM after 48 hrs by sulforhodamine B assay; conditions: values are per cent of control
[19] = system: SK-MEL-28; test: Growth inhibition of human SK-MEL-28 cells at 10 uM after 48 hrs by sulforhodamine B assay; conditions: SK-MEL-28, 48 h, values are per cent of control
[20] = Growth inhibition of human Hs 578T cells at 10 uM after 48 hrs by sulforhodamine B assay; conditions: values are per cent of control
[21] = Growth inhibition of human SF295 cells at 10 uM after 48 hrs by sulforhodamine B assay; conditions: SF-295, 48 h, values are per cent of control
[22] = system: HT-29; test: Growth inhibition of human HT-29 cells at 10 uM after 48 hrs by sulforhodamine B assay; conditions: HT-29, 48 h, values are per cent of control
[23] = system: NCI-H322M; test: Growth inhibition of human NCI-H322M cells at 10 uM after 48 hrs by sulforhodamine B assay; conditions: values are per cent of control
[24] = Growth inhibition of human HCT15 cells at 10 uM after 48 hrs by sulforhodamine B assay; conditions: HCT-15, 48 h, values are per cent of control
[25] = Growth inhibition of human DU145 cells at 10 uM after 48 hrs by sulforhodamine B assay; conditions: DU-145, 48 h, values are per cent of control
[26] = Growth inhibition of human SF539 cells at 10 uM after 48 hrs by sulforhodamine B assay; conditions: SF-539, 48 h, values are per cent of control
[27] = Growth inhibition of human TK10 cells at 10 uM after 48 hrs by sulforhodamine B assay; conditions: TK-10, 48 h, values are per cent of control
[28] = Growth inhibition of human OVCAR8 cells at 10 uM after 48 hrs by sulforhodamine B assay; conditions: OVCAR-8, 48 h, values are per cent of control
[29] = Growth inhibition of human HCC2998 cells at 10 uM after 48 hrs by sulforhodamine B assay; conditions: HCC 2998, 48 h, values are per cent of control
[30] = Growth inhibition of human Caki1 cells at 10 uM after 48 hrs by sulforhodamine B assay; conditions: CAKI-1, 48 h, values are per cent of control
[31] = Growth inhibition of human SKOV3 cells at 10 uM after 48 hrs by sulforhodamine B assay; conditions: SK-OV-3, 48 h, values are per cent of control
[32] = system: 786-0; test: Growth inhibition of human 786-0 cells at 10 uM after 48 hrs by sulforhodamine B assay; conditions: 786-0, 48 h, values are per cent of control
[33] = Growth inhibition of human UACC62 cells at 10 uM after 48 hrs by sulforhodamine B assay; conditions: UACC-62, 48 h, values are per cent of control
[34] = system: A549; test: Growth inhibition of human A549/ATCC cells at 10 uM after 48 hrs by sulforhodamine B assay; conditions: A549, 48 h, values are per cent of control
[35] = Growth inhibition of human LOXIMVI cells at 10 uM after 48 hrs by sulforhodamine B assay; conditions: LOX IMVI, values are per cent of control
[36] = Growth inhibition of human COLO205 cells at 10 uM after 48 hrs by sulforhodamine B assay; conditions: COLO 205, 48 h, values are per cent of control
[37] = system: SK-MEL-2; test: Growth inhibition of human SK-MEL-2 cells at 10 uM after 48 hrs by sulforhodamine B assay; conditions: SK-MEL-2, 48 h, values are per cent of control
[38] = system: NCI-H460; test: Growth inhibition of human NCI-H460 cells at 10 uM after 48 hrs by sulforhodamine B assay; conditions: NCI-H460, 48 h, values are per cent of control
[39] = system: NCI-H522; test: Growth inhibition of human NCI-H522 cells at 10 uM after 48 hrs by sulforhodamine B assay; conditions: NCI-H522, 48 h, values are per cent of control
[40] = system: T47D; test: Growth inhibition of human T47D cells at 10 uM after 48 hrs by sulforhodamine B assay; conditions: values are per cent of control

Compound	growth, % of control at 10 µM [1] [%]	growth, % of control at 10 µM [2] [%]	growth, % of control at 10 µM [3] [%]	growth, % of control at 10 µM [4] [%]	growth, % of control at 10 µM [5] [%]	growth, % of control at 10 µM [6] [%]	growth, % of control at 10 µM [7] [%]	growth, % of control at 10 µM [8] [%]	growth, % of control at 10 µM [9] [%]	growth, % of control at 10 µM [10] [%]	growth, % of control at 10 µM [11] [%]	growth, % of control at 10 µM [12] [%]	growth, % of control at 10 µM [13] [%]	growth, % of control at 10 µM [14] [%]	growth, % of control at 10 µM [15] [%]	growth, % of control at 10 µM [16] [%]	growth, % of control at 10 µM [17] [%]	growth, % of control at 10 µM [18] [%]	growth, % of control at 10 µM [19] [%]	growth, % of control at 10 µM [20] [%]	other results
COc1ccc(/C(C#N)=C/c2ccc3c(c2)OCO3)cc1	96.1	10.4	84.6	76.4	64.9	68.7	84.9	75.3	93.9	91.4	92	63.3	91.4	84.3	72.8	37.9	80.8	95.3	81.4	92.4	growth, % of control at 10 µM [21]: 80.8%; growth, % of control at 10 µM [22]: 64.5%; growth, % of control at 10 µM [23]: 94.7%; growth, % of control at 10 µM [24]: 59%; growth, % of control at 10 µM [25]: 95%; growth, % of control at 10 µM [26]: 83.7%; growth, % of control at 10 µM [27]: 85.7%; growth, % of control at 10 µM [28]: 94.7%; growth, % of control at 10 µM [29]: 80%; growth, % of control at 10 µM [30]: 78.2%; growth, % of control at 10 µM [31]: 88.6%; growth, % of control at 10 µM [32]: 95.4%; growth, % of control at 10 µM [33]: 69.2%; growth, % of control at 10 µM [34]: 71.2%; growth, % of control at 10 µM [35]: 102%; growth, % of control at 10 µM [36]: 76.2%; growth, % of control at 10 µM [37]: 90.1%; growth, % of control at 10 µM [38]: 64.3%; growth, % of control at 10 µM [39]: 90.5%; growth, % of control at 10 µM [40]: 70%
N#C/C(=C\c1ccsc1)c1ccc2c(c1)OCO2	106	105	96.4	91	102	103	109	113	115	102	102	103	101	104	84.6	105	67.7	112	113	119	growth, % of control at 10 µM [21]: 101%; growth, % of control at 10 µM [22]: 102%; growth, % of control at 10 µM [23]: 90.6%; growth, % of control at 10 µM [24]: 107%; growth, % of control at 10 µM [25]: 98.5%; growth, % of control at 10 µM [26]: 105%; growth, % of control at 10 µM [27]: 104%; growth, % of control at 10 µM [28]: 90.8%; growth, % of control at 10 µM [29]: 106%; growth, % of control at 10 µM [30]: 97.3%; growth, % of control at 10 µM [31]: 102%; growth, % of control at 10 µM [32]: 96.7%; growth, % of control at 10 µM [33]: 106%; growth, % of control at 10 µM [34]: 92.1%; growth, % of control at 10 µM [35]: 112%; growth, % of control at 10 µM [36]: 101%; growth, % of control at 10 µM [37]: 106%; growth, % of control at 10 µM [38]: 104%; growth, % of control at 10 µM [39]: 95.4%; growth, % of control at 10 µM [40]: 90.7%
